Experimental data reported in ChEMBL document CHEMBL1201862, “PubChem BioAssay data set” (2004).
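1) Cells in 96-well plates. 2) Compound, 48 h, 5 concentrations. 3) Linear interpolation between surrounding doses. 4) Unreached endpoint = highest concentration. Abbreviation: GI50, concentration required for 50% inhibition of growth.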 The source made the active and inactive calls. Rule as the data show it: active = GI50 up to about 1.1 µM and inactive = higher.

Assays:
Experiment in all cases: growth of human tumour cells (NCI), 48 h
TK-10 = system: TK-10
A549 = system: A549
SK-MEL-28 = system: SK-MEL-28
LOX IMVI = system: LOX IMVI
SW-620 = system: SW-620
PC-3 = system: PC-3
UACC-62 = system: UACC-62
MDA-MB-435 = system: MDA-MB-435
KM12 = system: KM12
IGROV-1 = system: IGROV-1
HOP-62 = system: HOP-62
OVCAR-8 = system: OVCAR-8
SF-295 = system: SF-295
COLO 205 = system: COLO 205
HL-60 = system: HL-60
RXF 393 = system: RXF 393
RPMI-8226 = system: RPMI-8226
HCT-15 = system: HCT-15
DU-145 = system: DU-145
SK-MEL-5 = system: SK-MEL-5
A498 = system: A498
UACC-257 = system: UACC-257
MOLT-4 = system: MOLT-4
NCI-H23 = system: NCI-H23
SK-OV-3 = system: SK-OV-3
SF-539 = system: SF-539
OVCAR-4 = system: OVCAR-4
SF-268 = system: SF-268
HCC 2998 = system: HCC 2998
Malme-3M = system: Malme-3M
NCI-H522 = system: NCI-H522
M14 = system: M14
CCRF-CEM = system: CCRF-CEM
EKVX = system: EKVX
UO-31 = system: UO-31
HOP-92 = system: HOP-92
SR = system: SR
MCF7 = system: MCF7
HCT-116 = system: HCT-116
MDA-N = system: MDA-N
MDA-MB-231 = system: MDA-MB-231
SNB-75 = system: SNB-75
ACHN = system: ACHN
K562 = system: K562
NCI-H226 = system: NCI-H226
OVCAR-5 = system: OVCAR-5
HT-29 = system: HT-29
CAKI-1 = system: CAKI-1
U-251 = system: U-251
SK-MEL-2 = system: SK-MEL-2
Hs-578T = system: Hs-578T
SNB-19 = system: SNB-19
NCI/ADR-RES = system: NCI/ADR-RES
786-0 = system: 786-0
SN12C = system: SN12C
BT-549 = system: BT-549
OVCAR-3 = system: OVCAR-3
NCI-H460 = system: NCI-H460
T47D = system: T47D

## COc1cc(C2CC(C)(Nc3ccccc3)Oc3cc4c(cc32)OCO4)cc(OC)c1OC (stereo not given)
TK-10
  GI50: 1.88 µM (inactive)
A549
  GI50: 2.14 µM (inactive)
SK-MEL-28
  GI50: 0.254 µM (active)
LOX IMVI
  GI50: 0.256 µM (active)
SW-620
  GI50: 0.234 µM (active)
PC-3
  GI50: 0.251 µM (active)
UACC-62
  GI50: 0.203 µM (active)
MDA-MB-435
  GI50: 0.0172 µM (active)
KM12
  GI50: 0.19 µM (active)
IGROV-1
  GI50: 0.386 µM (active)
HOP-62
  GI50: 0.192 µM (active)
OVCAR-8
  GI50: 0.483 µM (active)
SF-295
  GI50: 0.199 µM (active)
COLO 205
  GI50: 0.839 µM (active)
HL-60
  GI50: 0.0906 µM (active)
RXF 393
  GI50: 0.222 µM (active)
RPMI-8226
  GI50: 0.263 µM (active)
HCT-15
  GI50: 0.161 µM
DU-145
  GI50: 0.352 µM (active)
SK-MEL-5
  GI50: 0.153 µM (active)
A498
  GI50: 2.97 µM (inactive)
UACC-257
  GI50: 2.2 µM (inactive)
MOLT-4
  GI50: 0.535 µM (active)
NCI-H23
  GI50: 0.301 µM (active)
SK-OV-3
  GI50: 0.394 µM (active)
SF-539
  GI50: 0.171 µM (active)
OVCAR-4
  GI50: 1.84 µM (inactive)
SF-268
  GI50: 4.58 µM (inactive)
HCC 2998
  GI50: 0.729 µM (active)
Malme-3M
  GI50: 3.29 µM (inactive)
NCI-H522
  GI50: 0.296 µM (active)
M14
  GI50: 0.223 µM (active)
CCRF-CEM
  GI50: 0.124 µM (active)
EKVX
  GI50: 1.82 µM (inactive)
UO-31
  GI50: 1.2 µM (inactive)
HOP-92
  GI50: 15.8 µM (inactive)
SR
  GI50: 0.239 µM (active)
MCF7
  GI50: 0.135 µM (active)
HCT-116
  GI50: 0.23 µM (active)
MDA-N
  GI50: 0.0412 µM (active)
MDA-MB-231
  GI50: 0.853 µM (active)
SNB-75
  GI50: 3.49 µM (inactive)
ACHN
  GI50: 0.499 µM (active)
K562
  GI50: 0.0933 µM (active)
NCI-H226
  GI50: 0.855 µM (active)
OVCAR-5
  GI50: 2.71 µM (inactive)
HT-29
  GI50: 0.182 µM (active)
CAKI-1
  GI50: 0.478 µM (active)
U-251
  GI50: 0.279 µM (active)
SK-MEL-2
  GI50: 0.303 µM (active)
Hs-578T
  GI50: 0.105 µM (active)
SNB-19
  GI50: 0.736 µM (active)
NCI/ADR-RES
  GI50: 0.277 µM (active)
786-0
  GI50: 0.298 µM (active)
SN12C
  GI50: 0.247 µM (active)
BT-549
  GI50: 0.506 µM (active)
OVCAR-3
  GI50: 0.219 µM (active)
NCI-H460
  GI50: 0.327 µM (active)

## Cc1nnc(N)nc1/C=C\c1ccc(N(C)C)cc1
TK-10
  GI50: > 37.6 µM (inactive)
A549
  GI50: 9.79 µM (inactive)
SK-MEL-28
  GI50: > 45.9 µM (inactive)
LOX IMVI
  GI50: 4.88 µM (inactive)
SW-620
  GI50: > 64.6 µM (inactive)
PC-3
  GI50: 30.7 µM (inactive)
UACC-62
  GI50: 4.27 µM (inactive)
MDA-MB-435
  GI50: 6.27 µM (inactive)
KM12
  GI50: 12.3 µM (inactive)
IGROV-1
  GI50: 37.5 µM (inactive)
HOP-62
  GI50: 38.5 µM (inactive)
OVCAR-8
  GI50: 22.9 µM (inactive)
SF-295
  GI50: > 41.2 µM (inactive)
COLO 205
  GI50: > 29.7 µM (inactive)
HL-60
  GI50: 3.32 µM (inactive)
RXF 393
  GI50: > 40.1 µM (inactive)
RPMI-8226
  GI50: 9.86 µM (inactive)
HCT-15
  GI50: 2.99 µM
DU-145
  GI50: > 66.2 µM (inactive)
SK-MEL-5
  GI50: 18.5 µM (inactive)
A498
  GI50: 16.6 µM (inactive)
T47D
  GI50: > 24.6 µM (inactive)
UACC-257
  GI50: 22.5 µM (inactive)
MOLT-4
  GI50: 17.6 µM (inactive)
NCI-H23
  GI50: 7.01 µM (inactive)
SK-OV-3
  GI50: > 29.4 µM (inactive)
OVCAR-4
  GI50: 26.5 µM (inactive)
SF-268
  GI50: > 34.2 µM (inactive)
HCC 2998
  GI50: 3.78 µM (inactive)
Malme-3M
  GI50: 29.2 µM (inactive)
NCI-H522
  GI50: 1.68 µM (inactive)
M14
  GI50: 27 µM (inactive)
CCRF-CEM
  GI50: 10.3 µM (inactive)
EKVX
  GI50: 29.6 µM (inactive)
UO-31
  GI50: 3.18 µM (inactive)
SR
  GI50: 6.24 µM (inactive)
MCF7
  GI50: 3.85 µM (inactive)
HCT-116
  GI50: 10.8 µM (inactive)
MDA-N
  GI50: 17.4 µM (inactive)
SNB-75
  GI50: 2.67 µM (inactive)
ACHN
  GI50: 15 µM (inactive)
K562
  GI50: 86.9 µM (inactive)
NCI-H226
  GI50: 16.1 µM (inactive)
OVCAR-5
  GI50: > 86.3 µM (inactive)
HT-29
  GI50: 8.83 µM (inactive)
U-251
  GI50: > 27.1 µM (inactive)
SK-MEL-2
  GI50: 39.8 µM (inactive)
Hs-578T
  GI50: 5.82 µM (inactive)
SNB-19
  GI50: 15.2 µM (inactive)
NCI/ADR-RES
  GI50: 12.4 µM (inactive)
786-0
  GI50: > 26.7 µM (inactive)
SN12C
  GI50: > 100 µM (inactive)
BT-549
  GI50: > 20.9 µM (inactive)
NCI-H460
  GI50: 9.66 µM (inactive)

## CC(C)(C)C1CCC2c3c([nH]c4ccccc34)C3C(=O)N(c4ccccc4[N+](=O)[O-])C(=O)C3C2C1 (stereo not given)
TK-10
  GI50: 17.7 µM (inactive)
A549
  GI50: 7 µM (inactive)
LOX IMVI
  GI50: 11.9 µM (inactive)
SW-620
  GI50: 11.5 µM (inactive)
PC-3
  GI50: 7.6 µM (inactive)
UACC-62
  GI50: 12.2 µM (inactive)
MDA-MB-435
  GI50: 19.1 µM (inactive)
IGROV-1
  GI50: 16.7 µM (inactive)
HOP-62
  GI50: 4.53 µM (inactive)
OVCAR-8
  GI50: 16.6 µM (inactive)
SF-295
  GI50: 12.3 µM (inactive)
COLO 205
  GI50: 10.5 µM (inactive)
HL-60
  GI50: 11.7 µM (inactive)
RXF 393
  GI50: 6.65 µM (inactive)
RPMI-8226
  GI50: 17.5 µM (inactive)
HCT-15
  GI50: 11.2 µM
DU-145
  GI50: 8.39 µM (inactive)
SK-MEL-5
  GI50: 13.5 µM (inactive)
A498
  GI50: 15.5 µM (inactive)
UACC-257
  GI50: 22.2 µM (inactive)
MOLT-4
  GI50: > 10 µM (inactive)
NCI-H23
  GI50: 8.34 µM (inactive)
SK-OV-3
  GI50: 37.5 µM (inactive)
SF-539
  GI50: 21.5 µM (inactive)
SF-268
  GI50: > 10 µM (inactive)
HCC 2998
  GI50: 4.14 µM (inactive)
Malme-3M
  GI50: 16.4 µM (inactive)
M14
  GI50: 13.8 µM (inactive)
CCRF-CEM
  GI50: 12.6 µM (inactive)
EKVX
  GI50: 11.4 µM (inactive)
UO-31
  GI50: 20.4 µM (inactive)
HOP-92
  GI50: 1.71 µM (inactive)
SR
  GI50: 9.64 µM (inactive)
MCF7
  GI50: 3.1 µM (inactive)
HCT-116
  GI50: 7.48 µM (inactive)
MDA-N
  GI50: 13.2 µM (inactive)
MDA-MB-231
  GI50: 10.6 µM (inactive)
ACHN
  GI50: 9.1 µM (inactive)
K562
  GI50: 11.9 µM (inactive)
NCI-H226
  GI50: 20.2 µM (inactive)
OVCAR-5
  GI50: 16.9 µM (inactive)
HT-29
  GI50: 4.32 µM (inactive)
CAKI-1
  GI50: 5.66 µM (inactive)
U-251
  GI50: 16 µM (inactive)
SK-MEL-2
  GI50: 14.9 µM (inactive)
Hs-578T
  GI50: 14.4 µM (inactive)
SNB-19
  GI50: 19.3 µM (inactive)
NCI/ADR-RES
  GI50: 12.7 µM (inactive)
786-0
  GI50: 12.7 µM (inactive)
SN12C
  GI50: 14.6 µM (inactive)
BT-549
  GI50: 21.7 µM (inactive)
OVCAR-3
  GI50: 13 µM (inactive)
NCI-H460
  GI50: 4.25 µM (inactive)
